The values below come from PMC10700596 (Nature Communications, 2023).

SMILES strings stand for the structures.

The target of the first assay is T1, EP4R (Homo sapiens, UniProt P35408).
T1 construct: Tango fusion cassette (only 'tango' is printed); expressed in transfected cells; host or cells: HTLA cells (tTA-dependent luciferase reporter, β-arrestin2-TEV fusion)
T1 sequence (P35408 whole entry, the tested form may be a part): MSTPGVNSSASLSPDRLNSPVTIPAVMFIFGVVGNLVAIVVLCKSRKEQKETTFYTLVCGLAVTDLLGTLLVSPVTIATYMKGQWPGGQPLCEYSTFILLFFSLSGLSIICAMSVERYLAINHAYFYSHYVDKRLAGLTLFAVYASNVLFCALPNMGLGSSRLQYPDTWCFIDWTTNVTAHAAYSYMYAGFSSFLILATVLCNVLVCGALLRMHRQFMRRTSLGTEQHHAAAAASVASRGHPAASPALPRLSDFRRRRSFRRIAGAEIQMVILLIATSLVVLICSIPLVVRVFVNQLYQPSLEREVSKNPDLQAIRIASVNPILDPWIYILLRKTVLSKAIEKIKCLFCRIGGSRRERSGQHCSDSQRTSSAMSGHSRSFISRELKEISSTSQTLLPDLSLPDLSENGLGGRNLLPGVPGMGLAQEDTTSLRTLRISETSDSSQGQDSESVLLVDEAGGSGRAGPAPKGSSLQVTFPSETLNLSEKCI
The assay can be described thus: biochemical. The class given is binding. As to conditions: 10 µM compound vs 10 nM 3H-PGE2.
Regarding `O=C(O)[C@H]1C[C@@H](C(=O)N(Cc2ccsc2)c2ccccc2)C1` [Compound 31, OC(=O)[C@H]1C[C@H](C1)C(=O)N(CC=2C=CSC2)C=3C=CC=CC3], the “% displacement of 3HPGE2 at 10 µM” value is -9.4%.

Turning to `O=C(O)[C@H]1C[C@@H](C(=O)N(Cc2ccsc2)c2ccccc2)C1` [Compound 33, OC(=O)[C@H]1C[C@H](C1)C(=O)N(CC=2C=CSC2)C=3C=CC=CC3], the “% displacement of 3HPGE2 at 10 µM” value is reported as -8.1%.

The assay is the same for the next values; noted with them: […], read-out: % displacement of 3HPGE2 at 10 µM, 10 µM compound vs 10 nM 3H-PGE2.
Consider `O=C(O)CCc1cccc(NC(=O)c2c(C(F)(F)F)nc3n2CCCC3)c1` [Compound 5, OC(=O)CCC=1C=CC=C(NC(=O)C2=C(N=C3CCCCN23)C(F)(F)F)C1], for which the inhibition at 10 µM was -19%.

As for `NC(=O)c1cc(C(=O)Nc2ccc(CC(=O)O)cc2)nn1-c1ccccc1` [Compound 6, NC(=O)C1=CC(=NN1C=2C=CC=CC2)C(=O)NC=3C=CC(CC(=O)O)=CC3], the inhibition at 10 µM is -18.8%.

In the case of `CC1(COC(=O)c2ccc(NS(C)(=O)=O)nc2)CC1(F)Cl` (stereo not shown) [Compound 7, CC1(COC(=O)C=2C=CC(NS(=O)(=O)C)=NC2)CC1(F)Cl], the inhibition at 10 µM is -18.4%.

`CN(c1nc2cccc(F)c2s1)[C@H]1C[C@@H](C(=O)O)C1` [Compound 8, CN([C@H]1C[C@H](C1)C(=O)O)C2=NC=3C=CC=C(F)C3S2]: the inhibition at 10 µM is -18.4%.

Regarding `CC(CN(C)c1nc(C(F)(F)F)cs1)C(=O)O` (stereo not shown) [Compound 9, CC(CN(C)C1=NC(=CS1)C(F)(F)F)C(=O)O], the inhibition at 10 µM was -18.1%.

With `COc1ccc(Cl)cc1C(Nc1ncc(C(=O)O)s1)c1ccccc1` (stereo not shown) [Compound 10, COC=1C=CC(Cl)=CC1C(NC2=NC=C(S2)C(=O)O)C=3C=CC=CC3], the inhibition at 10 µM is -17.8%.

With `Cc1ccc(-n2c(SCc3nnn[nH]3)nc3ccccc3c2=O)cc1` [Compound 11, CC=1C=CC(=CC1)N2C(SCC3=NN=NN3)=NC=4C=CC=CC4C2=O], the inhibition at 10 µM is -17.6%.

As to `O=C(O)c1c[nH]c2c(Cl)cc(-c3ccc4ccccc4c3F)cc2c1=O` [Compound 12, OC(=O)C1=CNC=2C(Cl)=CC(=CC2C1=O)C=3C=CC=4C=CC=CC4C3F], the inhibition at 10 µM is -17.1%.

For the molecule `O=C(NCc1cc(Cl)cc2c1OCC2)c1cc2sc(C(=O)O)cc2[nH]1` [Compound 13, OC(=O)C1=CC=2NC(=CC2S1)C(=O)NCC=3C=C(Cl)C=C4CCOC43], the inhibition at 10 µM is -16.5%.

`CC1(C(=O)O)CCN(C(=O)C(O)c2ccc(Cl)c(Br)c2)C1` (stereo not shown) [Compound 14, CC1(CCN(C1)C(=O)C(O)C=2C=CC(Cl)=C(Br)C2)C(=O)O]: the inhibition at 10 µM is -14.7%.

Turning to `O=C(O)CCC(Cc1ccccc1)NS(=O)(=O)c1csc2ccccc12` (stereo not shown) [Compound 15, OC(=O)CCC(CC=1C=CC=CC1)NS(=O)(=O)C2=CSC=3C=CC=CC23], the inhibition at 10 µM is -14.5%.

In the case of `CN(Cc1nccn1C1CC1)c1ncnc2[nH]c(C(=O)O)cc12` [Compound 16, CN(CC1=NC=CN1C2CC2)C=3N=CN=C4NC(=CC34)C(=O)O], the inhibition at 10 µM was -14.5%.

`CC(CN(C(=O)c1ccn(-c2ccccc2)n1)C1CC1)C(=O)O` (stereo not shown) [Compound 17, CC(CN(C1CC1)C(=O)C=2C=CN(N2)C=3C=CC=CC3)C(=O)O]: the inhibition at 10 µM is -14%.

For the molecule `O=C(O)CC[C@H]1C[C@@H](NC(=O)C(O)c2ccc(Cl)cc2Cl)C1` (stereo partly shown) [Compound 18, OC(C(=O)N[C@H]1C[C@@H](CCC(=O)O)C1)C=2C=CC(Cl)=CC2Cl], the inhibition at 10 µM is -13.7%.

On to `CC(CN(C(=O)CCc1ccc2ccccc2c1)C1CC1)C(=O)O` (stereo not shown) [Compound 19, CC(CN(C1CC1)C(=O)CCC=2C=CC=3C=CC=CC3C2)C(=O)O], for which the inhibition at 10 µM was -13.2%.

Take `c1ccc(-c2nc(SCc3nnn[nH]3)oc2-c2ccccc2)cc1` [Compound 20, C(SC1=NC(=C(O1)C=2C=CC=CC2)C=3C=CC=CC3)C4=NN=NN4]: the inhibition at 10 µM was -12.7%.

For `O=C(O)CCN(Cc1ccccc1)C(=O)CC1(C(F)(F)F)CC1` [Compound 21, OC(=O)CCN(CC=1C=CC=CC1)C(=O)CC2(CC2)C(F)(F)F], the inhibition at 10 µM is -12.3%.

Consider `COc1ccc(-c2cc(CS(=O)(=O)c3nnc(C)[nH]3)on2)cc1` [Compound 22, COC=1C=CC(=CC1)C=2C=C(CS(=O)(=O)C3=NN=C(C)N3)ON2], for which the inhibition at 10 µM was -11.6%.

Regarding `CN(c1cccc(CC(=O)O)c1)S(=O)(=O)CC1Cc2ccccc2C1` [Compound 23, CN(C=1C=CC=C(CC(=O)O)C1)S(=O)(=O)CC2CC=3C=CC=CC3C2], the inhibition at 10 µM is -11.1%.

Turning to `CC(CN(C(=O)c1cc2c(C(F)F)nn(C)c2s1)C1CC1)C(=O)O` (stereo not shown) [Compound 24, CC(CN(C1CC1)C(=O)C2=CC=3C(=NN(C)C3S2)C(F)F)C(=O)O], the inhibition at 10 µM was -10.7%.

As to `COC(C(=O)N(C1CC1)C(C)C(=O)O)c1cnn(C)c1` (stereo not shown) [Compound 25, COC(C(=O)N(C(C)C(=O)O)C1CC1)C=2C=NN(C)C2], the inhibition at 10 µM is -10.6%.

Take `O=C(O)c1cc2c(s1)CCCN(C(=O)C1CC13CCc1ccccc13)C2` (stereo not shown) [Compound 26, OC(=O)C1=CC=2CN(CCCC2S1)C(=O)C3CC43CCC=5C=CC=CC54]: the inhibition at 10 µM is -10.6%.

For the molecule `O=C(O)c1cc(NS(=O)(=O)c2cnc3ccsc3c2)ccc1O` [Compound 27, OC(=O)C=1C=C(NS(=O)(=O)C=2C=NC=3C=CSC3C2)C=CC1O], the inhibition at 10 µM is -10.4%.

Consider `O=C(NC1CCCC1C(=O)O)C(Sc1ccc(F)cc1)c1ccccc1` (stereo not shown) [Compound 28, OC(=O)C1CCCC1NC(=O)C(SC=2C=CC(F)=CC2)C=3C=CC=CC3], for which the inhibition at 10 µM was -10.3%.

Consider `O=C(O)C(NS(=O)(=O)CCc1cccc(Cl)c1)C(O)c1ccccc1` (stereo not shown) [Compound 29, OC(C(NS(=O)(=O)CCC=1C=CC=C(Cl)C1)C(=O)O)C=2C=CC=CC2], for which the inhibition at 10 µM is -10.2%.

As to `O=C(O)c1ccc(C2CCCN2S(=O)(=O)c2ccccc2-c2ccno2)s1` (stereo not shown) [Compound 30, OC(=O)C1=CC=C(S1)C2CCCN2S(=O)(=O)C=3C=CC=CC3C4=CC=NO4], the inhibition at 10 µM is -10.1%.

In the case of `O=C(Nc1cccc(-n2nn[nH]c2=O)c1)C1(c2ccccn2)CC1` [Compound 32, O=C(NC=1C=CC=C(C1)N2N=NNC2=O)C3(CC3)C=4C=CC=CN4], the inhibition at 10 µM was -8.5%.

Take `CC(NC(=O)C1CC2(CC(C(=O)O)C2)C1)c1ccc(C(F)(F)F)s1` (stereo not shown) [Compound 34, CC(NC(=O)C1CC2(CC(C2)C(=O)O)C1)C3=CC=C(S3)C(F)(F)F]: the inhibition at 10 µM is -6.1%.

Regarding `CC(CN(Cc1ccccc1)C(=O)COc1ccc(Cl)c2cccnc12)C(=O)O` (stereo not shown) [Compound 35, CC(CN(CC=1C=CC=CC1)C(=O)COC=2C=CC(Cl)=C3C=CC=NC23)C(=O)O], the inhibition at 10 µM was -5.8%.

Regarding `CN(C(=O)CSc1nnc(S)s1)c1ccc2ccccc2c1` [Compound 36, CN(C(=O)CSC1=NN=C(S)S1)C=2C=CC=3C=CC=CC3C2], the inhibition at 10 µM was -5.8%.

`Cc1ccc(CN(Cc2ccco2)C(=O)CSc2nnc(S)s2)s1` [Compound 37, CC1=CC=C(CN(CC2=CC=CO2)C(=O)CSC3=NN=C(S)S3)S1]: the inhibition at 10 µM was -5.2%.

Take `CC1(C(=O)O)CC(NS(=O)(=O)c2cc3cc(Cl)ccc3s2)CCO1` (stereo not shown) [Compound 38, CC1(CC(CCO1)NS(=O)(=O)C2=CC=3C=C(Cl)C=CC3S2)C(=O)O]: the inhibition at 10 µM is -5.2%.

With `O=C(O)CSc1nc2cc(Cl)ccc2n1Cc1ccccc1` [Compound 39, OC(=O)CSC1=NC=2C=C(Cl)C=CC2N1CC=3C=CC=CC3], the inhibition at 10 µM was -4.9%.

Take `CN(C(=O)C1CCCC1Cc1ccccc1)[C@H]1C[C@@H](C(=O)O)C1` (stereo partly shown) [Compound 40, CN([C@H]1C[C@H](C1)C(=O)O)C(=O)C2CCCC2CC=3C=CC=CC3]: the inhibition at 10 µM is -4%.

For the molecule `O=C(NCc1ccc(C(F)F)cc1)NC[C@H]1CC[C@H](C(=O)O)CC1` [Compound 41, OC(=O)[C@H]1CC[C@H](CNC(=O)NCC=2C=CC(=CC2)C(F)F)CC1], the inhibition at 10 µM was -3.4%.

In the case of `O=C(O)Cc1ccc(C=C2C(=O)N3CCCc4cccc2c43)cc1` [Compound 42, OC(=O)CC=1C=CC(C=C2C(=O)N3CCCC=4C=CC=C2C34)=CC1], the inhibition at 10 µM was -3.2%.

As to `Cc1nn(CC(F)(F)F)c(C)c1CC(=O)N(C1CC1)C(C)C(=O)O` (stereo not shown) [Compound 43, CC(N(C1CC1)C(=O)CC=2C(C)=NN(CC(F)(F)F)C2C)C(=O)O], the inhibition at 10 µM is -2.6%.

Consider `CN(C(=O)c1cc(N2CCCC2=O)cc(C(F)(F)F)c1)c1nnn[nH]1` [Compound 44, CN(C(=O)C=1C=C(C=C(C1)C(F)(F)F)N2CCCC2=O)C3=NN=NN3], for which the inhibition at 10 µM was -2.6%.

As to `Cc1cccc(C2(C(=O)NC3CCSC4(C3)CC(C(=O)O)C4)CC2)c1` (stereo not shown) [Compound 45, CC=1C=CC=C(C1)C2(CC2)C(=O)NC3CCSC4(CC(C4)C(=O)O)C3], the inhibition at 10 µM is -1.8%.

On to `CN(C(=O)c1nc(C2CC2)n(-c2ccccc2Cl)n1)c1nnn[nH]1` [Compound 46, CN(C(=O)C=1N=C(C2CC2)N(N1)C=3C=CC=CC3Cl)C4=NN=NN4], for which the inhibition at 10 µM was -1.5%.

On to `Cc1cccc2sc(N(C)CC(C)c3nnn[nH]3)nc12` (stereo not shown) [Compound 47, CC(CN(C)C1=NC=2C(C)=CC=CC2S1)C3=NN=NN3], for which the inhibition at 10 µM is -1.1%.

For `Cn1nc(-c2ccccc2)cc1CNC(=O)NC1CCC(C(=O)O)CC1` (stereo not shown) [Compound 48, CN1N=C(C=C1CNC(=O)NC2CCC(CC2)C(=O)O)C=3C=CC=CC3], the inhibition at 10 µM was -0.1%.

As to `CC(c1cn(-c2ccccc2)nn1)N1CCN(C(=O)C(=O)O)CC1` (stereo not shown) [Compound 49, CC(N1CCN(CC1)C(=O)C(=O)O)C2=CN(N=N2)C=3C=CC=CC3], the inhibition at 10 µM stood at 0.8%.

On to `CC(c1nc(-c2cccc(C(F)(F)F)c2)no1)S(=O)(=O)c1nnc[nH]1` (stereo not shown) [Compound 50, CC(C1=NC(=NO1)C=2C=CC=C(C2)C(F)(F)F)S(=O)(=O)C3=NN=CN3], for which the inhibition at 10 µM was determined as 0.9%.

In the case of `O=C(O)Cc1ccc(NC(=O)c2cncc(-c3ccccc3)c2)cc1` [Compound 51, OC(=O)CC=1C=CC(NC(=O)C=2C=NC=C(C2)C=3C=CC=CC3)=CC1], the inhibition at 10 µM amounted to 1%.

In the case of `COc1ccccc1CN(Cc1cccs1)C(=O)Cc1cccc(C(=O)O)c1` [Compound 52, COC=1C=CC=CC1CN(CC2=CC=CS2)C(=O)CC=3C=CC=C(C3)C(=O)O], the inhibition at 10 µM came out at 1.2%.

For `O=C(O)c1cc(NS(=O)(=O)c2ccc(Br)cc2F)ccc1O` [Compound 53, OC(=O)C=1C=C(NS(=O)(=O)C=2C=CC(Br)=CC2F)C=CC1O], the inhibition at 10 µM amounted to 2.8%.
